pEC50: −log10 of the molar value. “Also recorded” adds a separate entry of the source.
What was measured:
primary human adipocytes = assay: In vitro glucose uptake assay in primary human adipocytes; format: cell-based; details: 50 μM for 3 hr
Method: (§1) The in vitro glucose uptake assay was carried out as described here.
(§2) KRPH buffer: 5 mM NaHPO4, pH 7.4 (Make KRPH buffer fresh each time) • 20 mM Hepes, pH 7.4 • 1 mM MgSO4 • 1 mM CaCl2 • 136 mM NaCl • 4.7 mM KCl • 1% BSA
(§3) For each well, add 1 μl containing 1 μCi [^3H]-2-DOG and 1 μl cold stock 2-DOG and 2 ml KRPH.
(§4) Use CytoB at 10 μM final to block carrier-mediated uptake. Also use this concentration at the end to stop the reaction. The stop buffer is PBS plus 10 μm CytoB (“PBS”).
(§5) 1. Starve cells for at least 2 hrs.
(§6) 2. Wash cells 2 times with KRPH buffer and add 2 mls of KRPH to the well.
(§7) 3. Treat cells with insulin and/or with test compound, or with vehicle (Control), for 20 min.
(§8) 4. After 20 min, aspirate the buffer from the well and immediately add 1 ml of KRPH buffer plus 2-DOG. For CytoB-treated cells, add CytoB 5 min before uptake assay.
(§9) 5. After 4 min, aspirate the buffer from the well and add 3 mls of cold PBS. After completing the assay, wash the cells in each well 2 times with cold PBS. Aspirate the Stop PBS completely, and then add 700 ul of 1% Triton X. Place in 37° C. incubator for 30 min.
(§10) 6. Count CPM in total lysate. Calculate CPM/well.
(§11) Subtract the CytoB value from the value obtained for each of cells treated with insulin and/or with test compound and cells treated with vehicle (Control).
Human preadipocytes (Cambrex) were differentiated into adipocytes. The differentiated primary human adipocytes were treated with or without 50 μM Compound 2 for 3 hr in serum-free medium. The human adipocytes were then washed with fresh KRPH buffer twice and treated with or without 100 nM insulin for 20 min. After treatment with or without insulin, glucose uptake was determined according to Example 17.

endogenous human RUP43 [1] = target: T1, endogenous human RUP43 (Homo sapiens, UniProt Q8TDU6); assay: Melanophore assay; format: cell-based; set-up: expressed in transfected cells; host or cells: melanophores (skin cells of lower vertebrates), transfected by electroporation
T1 sequence (Q8TDU6 1-330): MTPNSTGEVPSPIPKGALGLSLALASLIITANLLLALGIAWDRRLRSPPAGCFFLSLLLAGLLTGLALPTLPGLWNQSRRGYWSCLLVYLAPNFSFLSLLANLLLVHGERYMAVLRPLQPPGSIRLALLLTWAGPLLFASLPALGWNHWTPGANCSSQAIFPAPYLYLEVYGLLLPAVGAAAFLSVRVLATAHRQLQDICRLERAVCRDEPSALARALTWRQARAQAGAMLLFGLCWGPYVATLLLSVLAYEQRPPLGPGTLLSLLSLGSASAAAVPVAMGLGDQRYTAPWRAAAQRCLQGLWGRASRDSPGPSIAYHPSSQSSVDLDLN
Source text: Melanophores are skin cells found in lower vertebrates. They contain pigmented organelles termed melanosomes. Melanophores are able to redistribute these melanosomes along a microtubule network upon G-protein coupled receptor (GPCR) activation. The result of this pigment movement is an apparent lightening or darkening of the cells. In melanophores, the decreased levels of intracellular cAMP that result from activation of a […] receptor cause melanosomes to migrate to the center of the cell, resulting in a dramatic lightening in color. If cAMP levels are then raised, following activation of a Gs-coupled receptor, the melanosomes are re-dispersed and the cells appear dark again. The increased levels of diacylglycerol that result from activation of Gq-coupled receptors can also induce this re-dispersion. In addition, the technology is also suited to the study of certain receptor tyrosine kinases. The response of the melanophores takes place within minutes of receptor activation and results in a simple, robust color change. The response can be easily detected using a conventional absorbance microplate reader or a modest video imaging system. Unlike other skin cells, the melanophores derive from the neural crest and appear to express a full complement of signaling proteins. In particular, the cells express an extremely wide range of G-proteins and so are able to functionally express almost all GPCRs.
Melanophores can be utilized to identify compounds, including natural ligands, against GPCRs. This method can be conducted by introducing test cells of a pigment cell line capable of dispersing or aggregating their pigment in response to a specific stimulus and expressing an exogenous clone coding for the GCPR. A stimulant, e.g., melatonin, sets an initial state of pigment disposition wherein the pigment is aggregated within the test cells if activation of the GPCR induces pigment dispersion. […] The test cells are then contacted with chemical compounds, and it is determined whether the pigment disposition in the cells changed from the initial state of pigment disposition. […]

[2] = tested on: primary human skeletal muscle cells; assay: In vitro glucose uptake assay in primary human skeletal muscle cells; format: cell-based
Method: as §1, §2, §3, §4, §5, §6, §7, §8, §9, §10, §11
Primary human skeletal muscle cells obtained from Cambrex were grown to 50% confluence and then differentiated on culture with inducing medium for 5 to 7 days. The differentiated primary human skeletal muscle cells were then transferred to growth medium for 7 to 10 days.
Differentiated human skeletal muscle cells were treated with or without various concentrations of Compound 2 in serum-free medium for 3 hr. After treatment with or without Compound 2, the cells were washed twice with fresh KRPH buffer. […] After treatment with or without insulin, glucose uptake was determined according to Example 17. […]
Differentiated human skeletal muscle cells were treated with 50 μM Compound 2 for various time periods. At the end of each treatment period, glucose uptake was determined according to Example 17.

mouse 3T3L1 adipocytes = assay: In vitro glucose uptake assay in 3T3L1 adipocytes; format: cell-based
Method: as §1, §2, §3, §4, §5, §6, §7, §8
5. After 4 min, aspirate the buffer from the well and add 3 mls of cold PBS. After completing the assay, wash the cells in each well 2 times with cold PBS. […]
Differentiated mouse 3T3L1 adipocytes were treated with 50 μM Compound 2 for various times, after which glucose uptake was determined according to Example 17.
Differentiated mouse 3T3L1 adipocytes were treated with (“Compound 2”) or without (“Control”) Compound 2 in serum-free medium for 3 hr. […] After treatment with insulin, glucose uptake was determined according to Example 17.

rat L6 myoblast cells = assay: In vitro glucose uptake assay in L6 myoblast cells; format: cell-based
Method: as §1, §2, §3, §4, §5, §6, §7, §8, §9, §10, §11
Rat skeletal muscle L6 myoblast cells were obtained from ATCC and grown in 24-well plates to confluence.
Confluent L6 cells were treated with or without various concentrations of Compound 2 in serum-free medium for 3 hr. The L6 cells were then washed twice with KRPH buffer. L6 cells which had been treated with Compound 2 were incubated with KRPH buffer for 20 min; L6 cells which had not been treated with Compound 2 were treated with 10 nM or 100 nM insulin for 20 min. After treatment with or without insulin, glucose uptake was determined according to Example 17. […] As skeletal muscle cells are responsible for 80% of glucose disposal in vivo, the results obtained indicate that RUP43 agonist is an attractive candidate for providing better glucose disposal in vivo than does insulin.
Confluent L6 myoblast cells were treated with 50 μM Compound 2 for various times. At the end of each treatment period, glucose uptake was determined according to Example 17.
Confluent rat L6 myoblast cells were treated with or without 50 μM Compound 2 for 3 hr in serum-free medium. The L6 cells were then washed twice with fresh KRPH buffer. The L6 cells were then treated with or without 100 nM insulin for 20 min. After treatment with or without insulin, glucose uptake was determined according to Example 17. […] The results further indicate that RUP43 agonist can increase insulin efficacy, thereby lowering the concentration of insulin required to achieve maximal glucose uptake. […]

[3] = tested on: Mock transfected HEK293 cells (empty pCMV vector); assay: Whole-cell cyclase Flashplate cAMP assay, Mock transfected HEK293 cells; format: cell-based, human; details: serially diluted compound, 1 hour
Method: (§12) HEK 293 cells obtained from ATCC were used for all assays. Culture media consisted of […] of DMEM supplemented with 10% fetal bovine serum (Gibco, BRL). Cyclic AMP measurements were determined using the Adenylyl Cyclase Activation Flashplate® Assay with direct cAMP [^125I] Detection system.
(§13) HEK 293 cells (5×10^5 cells/ml) were plated in 15 cm dishes. […] Briefly, transfection mixture consisting of OptiMEM (Gibco, BRL) and FuGENE 6 reagent were mixed together and allow to incubate for 5 minutes at room temperature. Transfection reagent was added drop-wise into a separate tube containing 2 μg of endogenous human RUP43 receptor plasmid (Tranfected) or 2 μg of empty pCMV vector (Mock) and allowed to incubate for 15 minutes at room temperature. The DNA/transfection mixture was added drop-wise to each perspective plate and incubated over night in a humidified incubator maintained at 37° C., 95/5% […]. The next day, the media was replaced with normal growth media and the cells were incubated over night.
(§14) On Day 3, the cells were rinsed once with PBS and dislodged from the plate using a nonenzymatic cell-dissociation buffer (Gibco, BRL) and resuspended in assay stimulation Buffer® Perkin Elmer) at a density of 2×10^6 cell/ml for measurement of cAMP. […] At the end of the 2 hour incubation, the plate was aspirated and cAMP levels were determined using Wallac 1450 microbeta counter.

endogenous human RUP43 [4] = target: T1, endogenous human RUP43; assay: Whole-cell cyclase Flashplate cAMP assay, RUP43-transfected HEK293 cells; format: cell-based; set-up: expressed in transfected cells; host or cells: HEK293 cells (ATCC), transient transfection with FuGENE 6
Method: as §12, §13, §14

[5] = various concentrations 3 hr vs 10 nM or 100 nM insulin 20 min

agonist of RUP43 (identification) (endogenous human RUP43 [1]; melanophore technology) | pEC50 (endogenous human RUP43 [1]; melanophores transfected with endogenous human RUP43, 100 uM-51.2 pM, one hour) | Curve height (endogenous human RUP43 [1]; percent control response vs positive control wells (200) and negative control wells (100)) | agonist of RUP43 (identification) (endogenous human RUP43 [4]; whole-cell cAMP, HEK293 transfected with endogenous human RUP43) | SMILES | level of stimulated glucose uptake compared with insulin (primary human adipocytes; absence of insulin vs 100 nM insulin) | insulin-stimulated glucose uptake (primary human adipocytes; then 100 nM insulin 20 min) | glucose uptake (primary human adipocytes; without insulin) | time course of glucose uptake ([2]; 50 μM for various time periods) | glucose uptake compared with insulin [2, 5] | glucose uptake ([2]; various concentrations for 3 hr, absence of insulin) | glucose uptake (mouse 3T3L1 adipocytes; 50 μM Compound 2 for various times, no insulin) | insulin-stimulated glucose uptake (mouse 3T3L1 adipocytes; compound 3 hr in serum-free medium, then various concentrations of insulin 20 min) | insulin-stimulated glucose uptake (rat L6 myoblast cells; 50 μM for 3 hr, then 100 nM insulin 20 min) | time to stimulation of glucose uptake (rat L6 myoblast cells; 50 μM for various times) [min] | glucose uptake compared with insulin (rat L6 myoblast cells; [5]) | glucose uptake (rat L6 myoblast cells; various concentrations for 3 hr, no insulin) | intracellular cAMP [3] | intracellular cAMP (endogenous human RUP43 [4]; HEK293 cells transfected with endogenous human RUP43, serially diluted compound, 1 hour)
agonist of endogenous human RUP43 | 6.67 | approximately 92 % of control | – | O=C(Cc1ccccc1Cl)N1CCC(c2nc(C(=O)N3CCCc4ccccc43)cs2)CC1 [Compound 2, 2-(2-Chloro-phenyl)-1-{4-[4-(3,4-dihydro-2H-quinoline-1-carbonyl)-thiazol-2-yl]-piperidin-1-yl}-ethanone] | comparable to the level of insulin-stimulated glucose uptake | enhanced insulin-stimulated glucose uptake | stimulates glucose uptake | rapid stimulation of glucose uptake | more effectively than insulin | efficacious at stimulating glucose uptake; also recorded: stimulates glucose uptake | stimulates glucose uptake | enhances insulin-stimulated glucose uptake | enhances insulin-stimulated glucose uptake | ≤ 20 | greater glucose uptake in rat L6 myoblast than did insulin | stimulates glucose uptake | – | –
– | – | – | agonist of RUP43 | CN(C(=O)c1csc(C2CCN(C(=O)Cc3ccccc3Cl)CC2)n1)c1c2c(nn1C)CCCC2 [Compound 1, 2-{1-[2-(2-Chloro-phenyl)-acetyl]-piperidin-4-yl}-thiazole-4-carboxylicacid methyl-(2-methyl-4,5,6,7-tetrahydro-2H-indazol-3-yl)-amide] | – | – | – | – | – | – | – | – | – | – | – | – | not in Mock transfected cells | in a dose dependent manner, led to an increase in intracellular cAMP
